Reference: patent US20240190860A1, “8-CYCLO-SUBSTITUTED QUINAZOLINE DERIVATIVES AS LPA RECEPTOR 2 INHIBITORS” (CHIESI FARMACEUTICI S.p.A., priority 2021, published 2024)

What follows are molecules tested against T1, human recombinant LPA2 expressed in CHO cells (Homo sapiens, UniProt Q9HBW0) (assay: FLIPR calcium mobilization assay, LPA2 antagonism in CHO-hLPA2 cells). Settings: CHO-hLPA2 cells, inhibition of LPA EC80 Ca2+ response, 30 min pre-incubation; read-out: LPA2 IC50.
T1 construct: expressed in transfected cells; host or cells: CHO cells (CHO-hLPA2 cell line)
T1 sequence (Q9HBW0 whole entry): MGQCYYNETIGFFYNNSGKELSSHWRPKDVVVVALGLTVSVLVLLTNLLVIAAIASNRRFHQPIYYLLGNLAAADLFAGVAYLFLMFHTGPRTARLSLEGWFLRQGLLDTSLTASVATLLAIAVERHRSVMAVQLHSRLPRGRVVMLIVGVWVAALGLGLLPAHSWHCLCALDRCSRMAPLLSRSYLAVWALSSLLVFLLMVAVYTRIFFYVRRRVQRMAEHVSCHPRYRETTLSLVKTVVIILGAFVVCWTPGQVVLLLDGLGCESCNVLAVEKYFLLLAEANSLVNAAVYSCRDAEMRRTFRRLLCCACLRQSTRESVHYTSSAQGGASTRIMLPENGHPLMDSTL
Assay type: cell-based
Experimental: The effectiveness of compounds of the present invention as LPA2 antagonist can be determined at the human recombinant LPA2 expressed in CHO cells, using a FLIPR assay in 384 well format.
CHO-hLPA2 cell lines are cultured in a humidified incubator at 5% C02 in DMEM/F-12 (1:1) MIXTURE with 2 mM Glutamax, supplemented with 10% of Foetal Bovine Serum, 1 mM Sodium Pyruvate, 11 mM Hepes and 1× Penicillin/Streptomycin. CHO hLPA2 cells are seeded into black walled clear-bottom 384-well plates (#781091, Greiner Bio-One GmbH) at a density of 7,500 cells per well in 50 μl culture media and grown overnight in a 37° C. humidified CO2-incubator. Serial dilutions (1:3 or 1:4, 11 points CRC) of compounds are performed in 100% DMSO at 200× the final concentration. The compounds are diluted 1:50 prior to the experiment with Assay Buffer (20 mM HEPES, 145 mM NaCl, 5 mM KCl, 5.5 mM glucose, 1 mM MgCl2 and 2 mM CaCl2, pH 7.4 containing 0.01% Pluronic F-127) to obtain a solution corresponding to […] the final concentration in the assay (4×, 2% DMSO). The final concentration of DMSO in the assay will be 0.5% in each well. Medium is removed by aspiration and cells are then incubated with 30 μl of a loading solution containing 5 μM of the cytoplasmic Ca2+ indicator Cal-520 AM in Assay Buffer containing 2.5 mM probenecid for 30 min at 37° C. incubator (cell loading). The loaded cell plates are transferred into the FLIPR instrument and calcium responses are monitored during the on-line addition protocols. For testing of compounds, after the cell loading, 10 μl/well of 4× antagonists' solution was added onto the cells. After 30 min pre-incubation (at 37° C.), 10 μl/well of 5× concentrated LPA EC80 was added and Ca2+ mobilization responses was followed during the on-line addition protocol. Intracellular peak fluorescence values subtracted by baseline fluorescence are exported and analysed to determine IC50 values, respectively. The calcium response is expressed as percentage of the maximal inhibition of the EC80 agonist response.
The raw data (peak height expressed as relative fluorescence units) are normalized and transformed into “percent of inhibition”. Curve fitting and pIC50 (−LogIC50) estimations are carried out using a four-parameter logistic model using XLfit Software.

Row | Structure (SMILES) | IC50 [nM]
1 | COC(=O)Nc1nc(C)c(S(=O)(=O)N2CCN(C[C@H](C)Nc3ncnc4c(-c5cn(C)nc5C(F)(F)F)cccc34)CC2)s1 [Example 30, methyl N-[4-methyl-5-({4-[(2S)-2-({8-[1-methyl-3-(trifluoromethyl)-1H-pyrazol-4-yl]quinazolin-4-yl}amino)propyl]piperazin-1-yl}sulfonyl)-1,3-thiazol-2-yl]carbamate] | < 10
2 | CC(=O)Nc1cc(F)c(S(=O)(=O)N2CCN(C[C@H](C)Nc3ncnc4c(-c5cccc(CN(C)C)c5)cccc34)CC2)cc1C [Example 53, N-[4-({4-[(2S)-2-[(8-{3-[(dimethylamino)methyl]phenyl}quinazolin-4-yl)amino]propyl]piperazin-1-yl}sulfonyl)-5-fluoro-2-methylphenyl]acetamide] | < 10
3 | C[C@@H](CN1CCN(S(=O)(=O)c2ccc3[nH]c(=O)sc3c2)CC1)Nc1ncnc2c(-c3cccnc3)cccc12 [Example 38, 6-({4-[(2S)-2-{[8-(pyridin-3-yl)quinazolin-4-yl]amino}propyl]piperazin-1-yl}sulfonyl)-2,3-dihydro-1,3-benzothiazol-2-one] | < 10
4 | COC(=O)Nc1nc(C)c(S(=O)(=O)N2CCN(C[C@H](C)Nc3ncnc4c(-c5cn(C)nc5C)cccc34)CC2)s1 [Example 63, methyl N-[5-({4-[(2S)-2-{[8-(1,3-dimethyl-1H-pyrazol-4-yl)quinazolin-4-yl]amino}propyl]piperazin-1-yl}sulfonyl)-4-methyl-1,3-thiazol-2-yl]carbamate] | < 10
5 | C[C@@H](CN1CCN(S(=O)(=O)c2ccc(F)c(F)c2)CC1)Nc1ncnc2c(-c3cccnc3)cccc12 [Example 52, N-[(2S)-1-[4-(3,4-difluorobenzenesulfonyl)piperazin-1-yl]propan-2-yl]-8-(pyridin-3-yl)quinazolin-4-amine] | 10 to 100
6 | COCC(=O)Nc1ncc(S(=O)(=O)N2CCN(C[C@H](C)Nc3ncnc4c(-c5cccc(CN(C)C)c5)cccc34)CC2)s1 [Example 81, N-[5-({4-[(2S)-2-[(8-{3-[(dimethylamino)methyl]phenyl}quinazolin-4-yl)amino]propyl]piperazin-1-yl}sulfonyl)-1,3-thiazol-2-yl]-2-methoxyacetamide] | < 10
7 | COC(=O)Nc1nc(C)c(S(=O)(=O)N2CCN(C[C@H](C)Nc3ncnc4c(-c5c(C)n[nH]c5C)cccc34)CC2)s1 [Example 27, methyl N-[5-({4-[(2S)-2-{[8-(3,5-dimethyl-1H-pyrazol-4-yl)quinazolin-4-yl]amino}propyl]piperazin-1-yl}sulfonyl)-4-methyl-1,3-thiazol-2-yl]carbamate] | < 10
8 | Cc1ccc(-c2cccc3c(N[C@@H](C)CN4CCN(S(=O)(=O)c5ccc6[nH]c(=O)sc6c5)CC4)ncnc23)cn1 [Example 78, 6-({4-[(2S)-2-{[8-(6-methylpyridin-3-yl)quinazolin-4-yl]amino}propyl]piperazin-1-yl}sulfonyl)-2,3-dihydro-1,3-benzothiazol-2-one] | 10 to 100
9 | COC(=O)Nc1nc(C)c(S(=O)(=O)N2CCN(C[C@H](C)Nc3ncnc4c(-c5c(C)nn(CCN(C)C)c5C)cccc34)CC2)s1 [Example 101, methyl N-[5-({4-[(2S)-2-[(8-{1-[2-(dimethylamino)ethyl]-3,5-dimethyl-1H-pyrazol-4-yl}quinazolin-4-yl)amino]propyl]piperazin-1-yl}sulfonyl)-4-methyl-1,3-thiazol-2-yl]carbamate] | < 10
10 | COC(=O)Nc1nc(C)c(S(=O)(=O)N2CCN(C[C@H](C)Nc3ncnc4c(-c5ccnc(N6CCN(C)CC6)c5)cccc34)CC2)s1 [Example 44, methyl N-[4-methyl-5-({4-[(2S)-2-({8-[2-(4-methylpiperazin-1-yl)pyridin-4-yl]quinazolin-4-yl}amino)propyl]piperazin-1-yl}sulfonyl)-1,3-thiazol-2-yl]carbamate] | < 10
11 | Cc1ccc(-c2cccc3c(N[C@@H](C)CN4CCN(S(=O)(=O)c5ccc6c(c5)sc(=O)n6C)CC4)ncnc23)cn1 [Example 100, 3-methyl-6-({4-[(2S)-2-{[8-(6-methylpyridin-3-yl)quinazolin-4-yl]amino}propyl]piperazin-1-yl}sulfonyl)-2,3-dihydro-1,3-benzothiazol-2-one] | 10 to 100
12 | Cc1nc2ccc(S(=O)(=O)N3CCN(C[C@H](C)Nc4ncnc5c(-c6cccnc6)cccc45)CC3)cc2s1 [Example 83, N-[(2S)-1-{4-[(2-methyl-1,3-benzothiazol-6-yl)sulfonyl]piperazin-1-yl}propan-2-yl]-8-(pyridin-3-yl)quinazolin-4-amine] | < 10
13 | COC(=O)Nc1nc(C)c(S(=O)(=O)N2CCN(C[C@H](C)Nc3ncnc4c(-c5cnc(C)cn5)cccc34)CC2)s1 [Example 2, methyl N-[4-methyl-5-({4-[(2S)-2-{[8-(5-methylpyrazin-2-yl)quinazolin-4-yl]amino}propyl]piperazin-1-yl}sulfonyl)-1,3-thiazol-2-yl]carbamate] | 10 to 100
14 | COC(=O)Nc1nc(C)c(S(=O)(=O)N2CCN(C[C@H](C)Nc3ncnc4c(-c5cn(CCN(C)C)nc5C(F)(F)F)cccc34)CC2)s1 [Example 102, methyl N-[5-({4-[(2S)-2-[(8-{1-[2-(dimethylamino)ethyl]-3-(trifluoromethyl)-1H-pyrazol-4-yl}quinazolin-4-yl)amino]propyl]piperazin-1-yl}sulfonyl)-4-methyl-1,3-thiazol-2-yl]carbamate] | < 10
15 | Cc1cc(-c2ccc(S(=O)(=O)N3CCN(C[C@H](C)Nc4ncnc5c(-c6cn(C)nc6C(F)(F)F)cccc45)CC3)s2)on1 [Example 14, N-[(2S)-1-(4-{[5-(3-methyl-1,2-oxazol-5-yl)thiophen-2-yl]sulfonyl}piperazin-1-yl)propan-2-yl]-8-[1-methyl-3-(trifluoromethyl)-1H-pyrazol-4-yl]quinazolin-4-amine] | < 10
16 | C[C@@H](CN1CCN(S(=O)(=O)c2ccc3[nH]c(=O)sc3c2)CC1)Nc1ncnc2c(-c3cn(C)nc3C(F)(F)F)cccc12 [Example 79, 6-({4-[(2S)-2-({8-[1-methyl-3-(trifluoromethyl)-1H-pyrazol-4-yl]quinazolin-4-yl}amino)propyl]piperazin-1-yl}sulfonyl)-2,3-dihydro-1,3-benzothiazol-2-one] | < 10
17 | Cc1cc(-c2ccc(S(=O)(=O)N3CCN(C[C@H](C)Nc4ncnc5c(-c6ccccc6)cccc45)CC3)s2)on1 [Example 4, N-[(2S)-1-(4-{[5-(3-methyl-1,2-oxazol-5-yl)thiophen-2-yl]sulfonyl}piperazin-1-yl)propan-2-yl]-8-phenylquinazolin-4-amine] | < 10
18 | Cc1nc2ccc(S(=O)(=O)N3CCN(C[C@H](C)Nc4ncnc5c(-c6ccc(F)c(CN(C)C)c6)cccc45)CC3)cc2s1 [Example 105, 8-{3-[(dimethylamino)methyl]-4-fluorophenyl}-N-[(2S)-1-{4-[(2-methyl-1,3-benzothiazol-6-yl)sulfonyl]piperazin-1-yl}propan-2-yl]quinazolin-4-amine] | < 10
19 | Cc1cc(-c2ccc(S(=O)(=O)N3CCN(C[C@H](C)Nc4ncnc5c(-c6c(C)noc6C)cccc45)CC3)s2)on1 [Example 3, 8-(3,5-dimethyl-1,2-oxazol-4-yl)-N-[(2S)-1-(4-{[5-(3-methyl-1,2-oxazol-5-yl)thiophen-2-yl]sulfonyl}piperazin-1-yl)propan-2-yl]quinazolin-4-amine] | < 10
20 | COC(=O)Nc1nc(C)c(S(=O)(=O)N2CCN(C[C@H](C)Nc3ncnc4c(-c5cncc(CN6CCCC6)c5)cccc34)CC2)s1 [Example 25, methyl N-[4-methyl-5-({4-[(2S)-2-[(8-{5-[(pyrrolidin-1-yl)methyl]pyridin-3-yl}quinazolin-4-yl)amino]propyl]piperazin-1-yl}sulfonyl)-1,3-thiazol-2-yl]carbamate] | < 10
21 | COC(=O)Nc1nc(C)c(S(=O)(=O)N2CCN(C[C@H](C)Nc3ncnc4c(-c5ccc(N(C)C)nc5)cccc34)CC2)s1 [Example 26, methyl N-[5-({4-[(2S)-2-({8-[6-(dimethylamino)pyridin-3-yl]quinazolin-4-yl}amino)propyl]piperazin-1-yl}sulfonyl)-4-methyl-1,3-thiazol-2-yl]carbamate] | < 10
22 | Cc1ccc(-c2cccc3c(N[C@@H](C)CN4CCN(S(=O)(=O)c5ccc6nc(C)sc6c5)CC4)ncnc23)cn1 [Example 99, N-[(2S)-1-{4-[(2-methyl-1,3-benzothiazol-6-yl)sulfonyl]piperazin-1-yl}propan-2-yl]-8-(6-methylpyridin-3-yl)quinazolin-4-amine] | 10 to 100
